Reference: the supplement of paper PMC11061612

Tests used:
[1] = test system: TE-1 (Esophageal Squamous Cell Carcinoma); experiment: Bliss excess, mean over the matrix (fraction); higher = more synergy
Procedure, shortened: (§1)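 Cell lines in DMEM/F12 or RPMI with 10% FBS were plated in 1536-well plates, held 24 hours at 37°C, 5% CO2, then given two-drug dose matrices for 72 hours (DMSO typically 0.2%). Viability was read by CellTiter-Glo 2.0 luminescence and scaled as inhibition from 0 (vehicle wells) to 1 (blank wells). Combination Emax is the second-highest inhibition in the matrix; Bliss excess is observed combination effect minus expected EA + EB − EA·EB, EA and EB being single-agent effects.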

[2] = test system: HSC-4 (Oral Cavity Carcinoma); experiment: as above
Procedure, shortened: as §1

[3] = test system: PANC-04-03 (Pancreatic Carcinoma); experiment: as above
Procedure, shortened: as §1

[4] = test system: KYSE-450 (Esophageal Squamous Cell Carcinoma); experiment: as above
Procedure, shortened: as §1

YH-13 (Glioblastoma) = experiment: as above
Procedure, shortened: as §1

[5] = test system: OSC-20 (Oral Cavity Carcinoma); experiment: as above
Procedure, shortened: as §1

TGW (Neuroblastoma) = experiment: as above
Procedure, shortened: as §1

[6] = test system: LU-65 (Non-Small Cell Lung Carcinoma); experiment: as above
Procedure, shortened: as §1

ACHN (Kidney Carcinoma) = experiment: as above
Procedure, shortened: as §1

TK10 (Kidney Carcinoma) = experiment: as above
Procedure, shortened: as §1

[7] = test system: NCI-H358 (Lung Adenocarcinoma); experiment: as above
Procedure, shortened: as §1

[8] = test system: KARPAS-299 (T-Cell Non-Hodgkin's Lymphoma); experiment: as above
Procedure, shortened: as §1

[9] = test system: NUGC-3 (Gastric Carcinoma); experiment: as above
Procedure, shortened: as §1

[10] = test system: HOP-62 (Lung Adenocarcinoma); experiment: as above
Procedure, shortened: as §1

[11] = test system: Hs-766T (Pancreatic Carcinoma); experiment: as above
Procedure, shortened: as §1

[12] = test system: OE19 (Esophageal Adenocarcinoma); experiment: as above
Procedure, shortened: as §1

[13] = test system: Ca9-22 (Head and Neck Carcinoma); experiment: as above
Procedure, shortened: as §1

[14] = test system: Caov-4 (Ovarian Carcinoma); experiment: as above
Procedure, shortened: as §1

[15] = test system: NEC8 (Other Solid Carcinomas); experiment: as above
Procedure, shortened: as §1

D-263MG (Glioblastoma) = experiment: combination Emax (second highest fraction inhibited in the dose matrix, 72 h); higher = more inhibition; extreme values may be limits of the assay
Procedure, shortened: as §1
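For Bliss excess, mean over the matrix in this document: after 72 h of two-drug dosing.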

Structure (SMILES)	Bliss excess [1]	Bliss excess [2]	Bliss excess [3]	Bliss excess [4]	Bliss excess (YH-13 (Glioblastoma))	Bliss excess [5]	Bliss excess (TGW (Neuroblastoma))	Bliss excess [6]	Bliss excess (ACHN (Kidney Carcinoma))	Bliss excess (TK10 (Kidney Carcinoma))	Bliss excess [7]	Bliss excess [8]	Bliss excess [9]	Bliss excess [10]	Bliss excess [11]	Bliss excess [12]	Bliss excess [13]	Bliss excess [14]	Bliss excess [15]	combination Emax (D-263MG (Glioblastoma))
Cn1cnc2c(F)c(Nc3ccc(Br)cc3Cl)c(C(=O)NOCCO)cc21 [Selumetinib] + CCN(CCO)CCCOc1ccc2c(Nc3cc(CC(=O)Nc4cccc(F)c4)[nH]n3)ncnc2c1 [AZD2811] (first compound max 10 µM, 7x7, partner max 1 µM)	0.0378	-0.0442	-0.0339	-0.0117	-0.14	-0.0115	-0.026	-0.0082	0.0086	-0.0589	-0.0743	0.0227	0.0179	-0.0772	-0.0659	-0.0015	0.0241	-0.0643	-0.0166	0.284
NC1(C(=O)N[C@@H](CCO)c2ccc(Cl)cc2)CCN(c2ncnc3[nH]ccc23)CC1 [Capivasertib] + CC(C)n1c(=O)n(C)c2cnc3cc(F)c(-c4ccc(OCCCN5CCCCC5)nc4)cc3c21 [AZD1390] (first compound max 10 µM, 7x7, partner max 0.3 µM)	-0.0818	-0.0891	-0.0997	-0.0209	-0.0372	-0.0528	-0.106	-0.248	-0.0389	-0.0798	-0.0088	0.015	-0.0372	-0.0893	-0.082	-0.0026	-0.0368	-0.0095	-0.0089	0.249
COc1nnc2ccc(N3CCC(c4ccc(OCCN5CCN(C)C(=O)[C@H]5C)cc4)CC3)nn12 [AZD5153] + CCN(CCO)CCCOc1ccc2c(Nc3cc(CC(=O)Nc4cccc(F)c4)[nH]n3)ncnc2c1 [AZD2811] (first compound max 1 µM, 7x7, partner max 1 µM)	0.0103	-0.129	-0.0667	-0.0527	-0.0409	-0.0785	-0.109	-0.0399	0.0017	-0.0717	-0.0479	-0.0009	-0.0372	-0.0853	-0.0263	-0.0026	-0.023	-0.0403	-0.0072	0.445
Cn1cnc2c(F)c(Nc3ccc(Br)cc3Cl)c(C(=O)NOCCO)cc21 [Selumetinib] + CC(C)n1c(=O)n(C)c2cnc3cc(F)c(-c4ccc(OCCCN5CCCCC5)nc4)cc3c21 [AZD1390] (first compound max 10 µM, 7x7, partner max 0.3 µM)	0.0347	-0.085	-0.0287	-0.0416	-0.0342	-0.0269	-0.0393	0.0027	0.0389	-0.0336	-0.03	0.0285	-0.0347	-0.0451	-0.0215	-0.0326	0.0337	-0.0382	-0.0268	0.204
COc1cccc(OCCCN)c1-c1cc(Nc2cnc(C#N)cn2)n[nH]1 [Prexasertib] + Cc1cc2ncnn2cc1Nc1ncc2c(n1)n(C1CCOCC1)c(=O)n2C [AZD7648] (first compound max 1 µM, 7x7, partner max 10 µM)	-0.0266	-0.0421	-0.0327	-0.0017	-0.0146	0.0115	-0.0512	-0.0099	-0.0182	0.0053	-0.0438	-0.0226	-0.0129	-0.0063	0.0183	-0.0291	-0.0231	-0.0361	0	0.835
Cn1cnc2c(F)c(Nc3ccc(Br)cc3Cl)c(C(=O)NOCCO)cc21 [Selumetinib] + C=CCn1c(=O)c2cnc(Nc3ccc(N4CCN(C)CC4)cc3)nc2n1-c1cccc(C(C)(C)O)n1 [AZD1775] (first compound max 10 µM, partner max 1 µM)	-0.0277	-0.041	-0.0351	-0.037	-0.0489	-0.019	-0.0219	0.0065	-0.0527	-0.0412	-0.0471	0.0463	-0.0757	-0.0468	-0.0559	-0.132	0.0321	-0.0097	0.0185	0.218
CC1(C)CCC(CN2CCN(c3ccc(C(=O)NS(=O)(=O)c4ccc(NCC5CCOCC5)c([N+](=O)[O-])c4)c(Oc4cnc5[nH]ccc5c4)c3)CC2)=C(c2ccc(Cl)cc2)C1 [Venetoclax] + Cn1cnc2c(F)c(Nc3ccc(Br)cc3Cl)c(C(=O)NOCCO)cc21 [Selumetinib] (first compound max 1 µM, 7x7, partner max 3 µM)	0.0008	-0.0211	-0.0633	-0.0432	-0.0542	-0.038	0.0099	-0.0153	-0.0151	-0.109	-0.024	-0.0102	0.0051	-0.0155	-0.0346	-0.0484	0.0054	0.0087	-0.0151	0.119
